Data taken from paper PMC5362750, “Discovery of Potent, Selective, and Orally Bioavailable Small-Molecule Modulators of the Mediator Complex-Associated Kinases CDK8 and CDK19” (Journal of Medicinal Chemistry, 2016).

Tests used:
SRPK2 = target: T1, SRPK2 (Homo sapiens, UniProt P78362); test: Kinase panel (Millipore); format: biochemical; settings: 1 µM, ATP at Km
T1 construct: purchased Millipore (KinaseProfiler) kinase panel

PI3 KINASE (H1047R/P85A) = PI3 KINASE (H1047R/P85A) (Homo sapiens, UniProt P42336, H1047R); settings: 1 µM, ATP at Km
ROCK-I = ROCK-I (Homo sapiens, UniProt Q13464); test: Kinase panel (Millipore); format: biochemical; settings: 1 µM, ATP at Km
Chain of ROCK-I (Q13464 whole entry): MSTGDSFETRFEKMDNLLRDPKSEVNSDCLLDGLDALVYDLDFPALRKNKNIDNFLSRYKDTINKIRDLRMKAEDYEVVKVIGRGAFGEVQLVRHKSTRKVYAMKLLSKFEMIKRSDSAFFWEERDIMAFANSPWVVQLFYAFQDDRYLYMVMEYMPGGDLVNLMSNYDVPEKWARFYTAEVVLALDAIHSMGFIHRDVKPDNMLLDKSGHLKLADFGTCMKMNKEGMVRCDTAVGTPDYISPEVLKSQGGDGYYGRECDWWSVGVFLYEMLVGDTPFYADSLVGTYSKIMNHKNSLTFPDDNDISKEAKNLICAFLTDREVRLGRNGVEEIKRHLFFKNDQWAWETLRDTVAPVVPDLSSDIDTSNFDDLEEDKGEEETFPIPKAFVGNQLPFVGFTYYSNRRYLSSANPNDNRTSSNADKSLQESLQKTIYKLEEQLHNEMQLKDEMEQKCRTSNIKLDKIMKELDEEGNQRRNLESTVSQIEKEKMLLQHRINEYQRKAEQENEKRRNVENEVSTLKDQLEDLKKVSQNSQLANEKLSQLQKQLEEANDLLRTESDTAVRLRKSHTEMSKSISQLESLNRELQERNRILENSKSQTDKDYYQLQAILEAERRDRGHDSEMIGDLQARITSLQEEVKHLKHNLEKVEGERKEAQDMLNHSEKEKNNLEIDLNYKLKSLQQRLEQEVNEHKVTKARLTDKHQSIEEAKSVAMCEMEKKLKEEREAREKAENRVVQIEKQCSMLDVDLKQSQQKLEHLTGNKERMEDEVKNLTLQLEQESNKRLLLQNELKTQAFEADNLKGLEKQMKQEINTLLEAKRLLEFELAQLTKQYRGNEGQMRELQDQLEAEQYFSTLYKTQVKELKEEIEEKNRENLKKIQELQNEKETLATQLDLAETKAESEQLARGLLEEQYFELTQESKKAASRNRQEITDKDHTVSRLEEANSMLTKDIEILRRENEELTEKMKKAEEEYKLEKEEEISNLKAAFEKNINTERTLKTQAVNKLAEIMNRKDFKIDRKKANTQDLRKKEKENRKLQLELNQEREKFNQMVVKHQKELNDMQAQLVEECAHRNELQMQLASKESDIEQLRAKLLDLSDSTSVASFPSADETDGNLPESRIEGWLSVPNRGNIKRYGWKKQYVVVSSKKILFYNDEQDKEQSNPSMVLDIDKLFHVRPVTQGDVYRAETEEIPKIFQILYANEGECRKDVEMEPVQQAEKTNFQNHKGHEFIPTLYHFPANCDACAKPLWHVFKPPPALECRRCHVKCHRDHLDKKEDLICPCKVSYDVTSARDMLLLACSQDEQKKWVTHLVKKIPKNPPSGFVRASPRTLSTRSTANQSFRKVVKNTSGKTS

alpha 2C (h) = alpha 2C (h) (Homo sapiens, UniProt P18825); test: biochemical; settings: read-out: % Inhibition of Control Specific Binding
CCK2 (CCKB) (h) = CCK2 (CCKB) (h) (Homo sapiens, UniProt P32239); test: CEREP binding assay; settings: agonist radioligand, read-out: % Inhibition of Control Specific Binding
PKCMU = target: T2, PKCMU (Homo sapiens, UniProt Q15139); test: Kinase panel (Millipore); format: biochemical; settings: 1 µM, ATP at Km
T2 construct: purchased Millipore (KinaseProfiler) kinase panel

PKG1ALPHA = PKG1ALPHA (Homo sapiens, UniProt Q13976); test: Kinase panel (Millipore); format: biochemical; settings: 1 µM, ATP at Km
A2B (h) = A2B (h) (Homo sapiens, UniProt P29275); test: biochemical; settings: read-out: % Inhibition of Control Specific Binding
TAO2 = target: T3, TAO2 (Homo sapiens, UniProt Q9UL54); test: Kinase panel (Millipore); format: biochemical; settings: 1 µM, ATP at Km
T3 construct: purchased Millipore (KinaseProfiler) kinase panel

LIMK1 = LIMK1 (Homo sapiens, UniProt P53667); test: Kinase panel (Millipore); format: biochemical; settings: 1 µM, ATP at Km
TIE2(Y897S) = TIE2(Y897S) (Homo sapiens, UniProt Q02763, Y897S); settings: 1 µM, ATP at Km
Chain of TIE2(Y897S) (Q02763 771-1124 Y897S limits assumed): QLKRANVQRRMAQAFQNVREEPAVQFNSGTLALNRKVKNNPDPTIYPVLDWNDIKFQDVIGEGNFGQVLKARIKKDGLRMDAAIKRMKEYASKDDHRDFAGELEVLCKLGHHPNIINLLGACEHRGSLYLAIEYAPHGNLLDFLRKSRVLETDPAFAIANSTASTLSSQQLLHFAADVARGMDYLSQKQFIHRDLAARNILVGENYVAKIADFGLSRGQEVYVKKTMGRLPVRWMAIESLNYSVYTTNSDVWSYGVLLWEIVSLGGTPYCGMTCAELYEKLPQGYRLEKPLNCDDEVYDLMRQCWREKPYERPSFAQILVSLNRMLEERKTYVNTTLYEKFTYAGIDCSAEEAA

GRK5 = target: T4, GRK5 (Homo sapiens, UniProt P34947); test: Kinase panel (Millipore); format: biochemical; settings: 1 µM, ATP at Km
T4 construct: purchased Millipore (KinaseProfiler) kinase panel

FGFR3 = target: T5, FGFR3 (Homo sapiens, UniProt P22607); test: Kinase panel (Millipore); format: biochemical; settings: 1 µM, ATP at Km
T5 construct: purchased Millipore (KinaseProfiler) kinase panel

AXL = target: T6, AXL (Homo sapiens, UniProt P30530); test: Kinase panel (Millipore); format: biochemical; settings: 1 µM, ATP at Km
T6 construct: purchased Millipore (KinaseProfiler) kinase panel

MSSK1 = target: T7, MSSK1 (Homo sapiens, UniProt Q9UPE1); test: Kinase panel (Millipore); format: biochemical; settings: 1 µM, ATP at Km
T7 construct: purchased Millipore (KinaseProfiler) kinase panel

BLT1 (LTB4) (h) = target: T8, BLT1 (LTB4) (h) (Homo sapiens, UniProt Q15722); test: CEREP binding assay; settings: agonist radioligand, read-out: % Inhibition of Control Specific Binding
T8 construct: purchased Millipore (KinaseProfiler) kinase panel

FLT3(D835Y) = FLT3(D835Y) (Homo sapiens, UniProt P36888, D835Y); settings: 1 µM, ATP at Km
FAK = FAK (Homo sapiens, UniProt Q05397); test: Kinase panel (Millipore); format: biochemical; settings: 1 µM, ATP at Km
CDK9/CYCLINT1 = CDK9/CYCLINT1 (Homo sapiens, UniProt P50750); settings: 1 µM, ATP at Km
in vivo = settings: NCr athymic, mouse, po, 30 mg/kg
PKA = PKA (Homo sapiens, UniProt P17612); test: Kinase panel (Millipore); format: biochemical; settings: 1 µM, ATP at Km
AMPA = settings: 10 µM, agonist radioligand
MLCK = test: Kinase panel (Millipore); format: biochemical; settings: 1 µM, ATP at Km
EGFR(L861Q) = EGFR(L861Q) (Homo sapiens, UniProt P00533, L861Q); settings: 1 µM, ATP at Km
EPHA1 = target: T9, EPHA1 (Homo sapiens, UniProt P21709); test: Kinase panel (Millipore); format: biochemical; settings: 1 µM, ATP at Km
T9 construct: purchased Millipore (KinaseProfiler) kinase panel

EPHA5 = target: T10, EPHA5 (Homo sapiens, UniProt P54756); test: Kinase panel (Millipore); format: biochemical; settings: 1 µM, ATP at Km
T10 construct: purchased Millipore (KinaseProfiler) kinase panel
T10 sequence (P54756 25-1037): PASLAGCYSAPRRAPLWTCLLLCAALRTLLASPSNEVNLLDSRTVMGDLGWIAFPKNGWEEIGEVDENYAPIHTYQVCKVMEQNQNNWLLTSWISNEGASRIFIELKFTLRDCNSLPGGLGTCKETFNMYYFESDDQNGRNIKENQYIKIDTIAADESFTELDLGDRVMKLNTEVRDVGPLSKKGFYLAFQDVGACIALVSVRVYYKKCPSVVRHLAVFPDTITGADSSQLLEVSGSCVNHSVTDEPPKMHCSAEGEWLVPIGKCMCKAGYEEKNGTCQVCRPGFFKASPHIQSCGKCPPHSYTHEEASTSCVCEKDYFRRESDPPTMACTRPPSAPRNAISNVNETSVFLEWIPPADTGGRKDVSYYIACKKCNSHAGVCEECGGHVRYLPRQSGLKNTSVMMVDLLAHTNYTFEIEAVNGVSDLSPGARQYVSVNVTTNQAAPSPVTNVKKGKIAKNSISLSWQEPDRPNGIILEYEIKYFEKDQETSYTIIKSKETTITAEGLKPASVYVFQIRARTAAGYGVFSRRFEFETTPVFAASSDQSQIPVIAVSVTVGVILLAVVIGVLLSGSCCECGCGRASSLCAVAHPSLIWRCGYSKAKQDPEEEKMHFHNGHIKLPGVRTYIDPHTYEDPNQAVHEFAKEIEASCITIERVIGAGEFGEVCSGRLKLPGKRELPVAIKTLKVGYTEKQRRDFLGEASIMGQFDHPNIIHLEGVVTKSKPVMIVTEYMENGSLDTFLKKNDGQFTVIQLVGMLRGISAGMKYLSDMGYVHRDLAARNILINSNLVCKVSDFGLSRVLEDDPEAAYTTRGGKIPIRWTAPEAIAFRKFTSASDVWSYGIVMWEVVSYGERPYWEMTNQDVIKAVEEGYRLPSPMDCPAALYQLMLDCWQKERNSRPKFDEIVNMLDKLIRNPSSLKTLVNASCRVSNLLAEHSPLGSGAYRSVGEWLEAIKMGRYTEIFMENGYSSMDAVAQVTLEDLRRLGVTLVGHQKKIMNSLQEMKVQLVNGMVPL

RIPK2 = RIPK2 (Homo sapiens, UniProt O43353); test: Kinase panel (Millipore); format: biochemical; settings: 1 µM, ATP at Km
NEK2 = NEK2 (Homo sapiens, UniProt P51955); test: Kinase panel (Millipore); format: biochemical; settings: 1 µM, ATP at Km
Chain of NEK2 (P51955 whole entry): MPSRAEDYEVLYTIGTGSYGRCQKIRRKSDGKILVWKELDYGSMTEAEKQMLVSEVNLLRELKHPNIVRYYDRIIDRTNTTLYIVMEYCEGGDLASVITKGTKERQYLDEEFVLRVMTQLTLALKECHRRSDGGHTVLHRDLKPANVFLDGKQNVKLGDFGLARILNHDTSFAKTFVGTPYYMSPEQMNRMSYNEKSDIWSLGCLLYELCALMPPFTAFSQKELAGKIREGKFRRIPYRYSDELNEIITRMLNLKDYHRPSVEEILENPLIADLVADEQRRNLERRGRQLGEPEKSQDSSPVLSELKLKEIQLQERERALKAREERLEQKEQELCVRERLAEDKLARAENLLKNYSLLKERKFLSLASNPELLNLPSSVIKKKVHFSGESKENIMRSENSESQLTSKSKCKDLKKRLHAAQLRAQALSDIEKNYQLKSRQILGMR

EPHB2 = target: T11, EPHB2 (Homo sapiens, UniProt P29323); test: Kinase panel (Millipore); format: biochemical; settings: 1 µM, ATP at Km
T11 construct: purchased Millipore (KinaseProfiler) kinase panel

MCH1 (h) = target: T12, MCH1 (h) (Homo sapiens, UniProt Q99705); test: CEREP binding assay; settings: agonist radioligand, read-out: % Inhibition of Control Specific Binding
T12 construct: purchased Millipore (KinaseProfiler) kinase panel

CK1GAMMA3 = CK1GAMMA3 (Homo sapiens, UniProt Q9Y6M4); test: Kinase panel (Millipore); format: biochemical; settings: 1 µM, ATP at Km
Chain of CK1GAMMA3 (Q9Y6M4 whole entry): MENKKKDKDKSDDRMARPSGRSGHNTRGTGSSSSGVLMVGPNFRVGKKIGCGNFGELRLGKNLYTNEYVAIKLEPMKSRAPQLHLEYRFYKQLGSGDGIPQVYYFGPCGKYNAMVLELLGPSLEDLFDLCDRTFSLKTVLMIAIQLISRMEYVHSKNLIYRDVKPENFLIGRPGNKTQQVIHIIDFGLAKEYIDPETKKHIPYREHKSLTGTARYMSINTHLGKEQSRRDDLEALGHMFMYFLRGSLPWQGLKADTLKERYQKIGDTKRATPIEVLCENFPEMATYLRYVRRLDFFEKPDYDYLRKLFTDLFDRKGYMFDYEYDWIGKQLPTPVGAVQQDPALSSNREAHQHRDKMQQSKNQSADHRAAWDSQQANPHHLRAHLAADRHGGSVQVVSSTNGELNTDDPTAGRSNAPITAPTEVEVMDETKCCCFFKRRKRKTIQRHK

HASPIN = target: T13, HASPIN (Homo sapiens, UniProt Q8TF76); test: Kinase panel (Millipore); format: biochemical; settings: 1 µM, ATP at Km
T13 construct: purchased Millipore (KinaseProfiler) kinase panel

IGF-1R, ACTIVATED = target: T14, IGF-1R, ACTIVATED (Homo sapiens, UniProt P08069); test: Kinase panel (Millipore); format: biochemical; settings: 1 µM, ATP at Km
T14 construct: purchased Millipore (KinaseProfiler) kinase panel
T14 sequence (P08069 31-1367): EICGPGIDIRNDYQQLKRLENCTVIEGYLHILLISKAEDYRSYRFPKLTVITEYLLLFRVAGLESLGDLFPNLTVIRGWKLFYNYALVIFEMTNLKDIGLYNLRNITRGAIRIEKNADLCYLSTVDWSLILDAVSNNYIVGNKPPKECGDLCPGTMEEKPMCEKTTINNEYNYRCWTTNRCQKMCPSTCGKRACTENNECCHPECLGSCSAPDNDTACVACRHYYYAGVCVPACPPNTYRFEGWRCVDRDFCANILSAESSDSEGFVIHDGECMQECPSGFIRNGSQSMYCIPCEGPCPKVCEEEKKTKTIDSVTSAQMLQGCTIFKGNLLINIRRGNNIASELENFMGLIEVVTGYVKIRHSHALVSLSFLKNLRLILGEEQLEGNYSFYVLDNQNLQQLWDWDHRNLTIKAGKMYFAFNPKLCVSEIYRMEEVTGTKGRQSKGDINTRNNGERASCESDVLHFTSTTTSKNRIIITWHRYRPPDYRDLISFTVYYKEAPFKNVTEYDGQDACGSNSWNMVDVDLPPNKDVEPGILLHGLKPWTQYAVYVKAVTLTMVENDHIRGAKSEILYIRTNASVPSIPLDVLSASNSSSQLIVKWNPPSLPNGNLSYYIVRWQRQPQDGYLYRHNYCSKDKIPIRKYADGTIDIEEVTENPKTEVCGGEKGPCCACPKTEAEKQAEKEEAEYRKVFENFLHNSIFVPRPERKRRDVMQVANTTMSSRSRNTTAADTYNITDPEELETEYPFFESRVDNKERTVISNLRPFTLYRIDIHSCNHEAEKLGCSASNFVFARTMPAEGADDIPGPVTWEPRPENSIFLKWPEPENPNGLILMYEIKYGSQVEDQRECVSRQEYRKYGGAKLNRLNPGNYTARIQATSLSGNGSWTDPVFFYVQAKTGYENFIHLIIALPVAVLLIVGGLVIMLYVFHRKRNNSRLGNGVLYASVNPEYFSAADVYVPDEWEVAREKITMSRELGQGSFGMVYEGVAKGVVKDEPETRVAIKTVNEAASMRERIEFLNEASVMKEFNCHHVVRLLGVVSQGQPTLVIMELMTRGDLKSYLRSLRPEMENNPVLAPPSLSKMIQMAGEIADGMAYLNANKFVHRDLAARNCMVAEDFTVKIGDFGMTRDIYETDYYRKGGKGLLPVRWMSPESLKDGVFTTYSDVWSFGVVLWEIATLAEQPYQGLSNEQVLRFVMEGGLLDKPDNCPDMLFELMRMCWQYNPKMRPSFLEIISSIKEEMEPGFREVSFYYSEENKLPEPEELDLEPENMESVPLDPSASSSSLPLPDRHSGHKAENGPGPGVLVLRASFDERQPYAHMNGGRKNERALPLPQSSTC

JAK3 = target: T15, JAK3 (Homo sapiens, UniProt P52333); test: Kinase panel (Millipore); format: biochemical; settings: 1 µM, ATP at Km
T15 construct: purchased Millipore (KinaseProfiler) kinase panel

MSK2 = target: T16, MSK2 (Homo sapiens, UniProt O75676); test: Kinase panel (Millipore); format: biochemical; settings: 1 µM, ATP at Km
T16 construct: purchased Millipore (KinaseProfiler) kinase panel

[1] = system: APC-mutant SW620 human colorectal carcinoma xenograft
FGR = FGR (Homo sapiens, UniProt P09769); test: Kinase panel (Millipore); format: biochemical; settings: 1 µM, ATP at Km
ERBB4 = target: T17, ERBB4 (Homo sapiens, UniProt Q15303); test: Kinase panel (Millipore); format: biochemical; settings: 1 µM, ATP at Km
T17 construct: purchased Millipore (KinaseProfiler) kinase panel

EPHA3 = target: T18, EPHA3 (Homo sapiens, UniProt P29320); test: Kinase panel (Millipore); format: biochemical; settings: 1 µM, ATP at Km
T18 construct: purchased Millipore (KinaseProfiler) kinase panel

Cn1ncc2cc(-c3cnc(N)c(Cl)c3N3CCC4(CCNC4=O)CC3)ccc21 [Compound 109, 8-(2-Amino-3-chloro-5-(1-methyl-1H-indazol-5-yl)pyridin-4-yl)-2,8-diazaspiro[4.5]decan-1-one]
% effect (SRPK2): 4%
% effect (PI3 KINASE (H1047R/P85A)): 7%
% effect (ROCK-I): 6%
inhibition at 10 µM (alpha 2C (h)): 25%
inhibition at 10 µM (CCK2 (CCKB) (h)): 0%
% effect (PKCMU): 5%
% effect (PKG1ALPHA): 23%
inhibition at 10 µM (A2B (h)): -7%
% effect (TAO2): 2%
% effect (LIMK1): -13%
% effect (TIE2(Y897S)): 0%
% effect (GRK5): 7%
% effect (FGFR3): -9%
% effect (AXL): -4%
% effect (MSSK1): -1%
inhibition at 10 µM (BLT1 (LTB4) (h)): 16%
% effect (FLT3(D835Y)): 21%
% effect (FAK): 6%
% effect (CDK9/CYCLINT1): -8%
concentration at 1 h (in vivo; Free Plasma conc.): 523 nM
concentration at 2 h (in vivo; Free Plasma conc.): 240 nM
concentration at 6 h (in vivo; Free Plasma conc.): 29 nM
concentration at 24 h (in vivo; Free Plasma conc.): 3 nM
concentration at 1 h (in vivo; Free tumor conc.): 171 nM
concentration at 2 h (in vivo; Free tumor conc.): 120 nM
concentration at 6 h (in vivo; Free tumor conc.): 55 nM
concentration at 24 h (in vivo; Free tumor conc.): 28 nM
concentration at 1 h (in vivo; Total Plasma conc.): 14900 nM
concentration at 2 h (in vivo; Total Plasma conc.): 6860 nM
concentration at 6 h (in vivo; Total Plasma conc.): 822 nM
concentration at 24 h (in vivo; Total Plasma conc.): 90 nM
concentration at 1 h (in vivo; Total tumor conc.): 4880 nM
concentration at 2 h (in vivo; Total tumor conc.): 3420 nM
concentration at 6 h (in vivo; Total tumor conc.): 1570 nM
concentration at 24 h (in vivo; Total tumor conc.): 796 nM
% effect (PKA): 25%
% Inhibition of Control Specific Binding (AMPA): 3%
% effect (MLCK): 3%
% effect (EGFR(L861Q)): 11%
% effect (EPHA1): 4%
% effect (EPHA5): -9%
% effect (RIPK2): 1%
% effect (NEK2): 4%
% effect (EPHB2): -3%
inhibition at 10 µM (MCH1 (h)): 34%
% effect (CK1GAMMA3): -7%
% effect (HASPIN): 26%
% effect (IGF-1R, ACTIVATED): 1%
% effect (JAK3): 4%
% effect (MSK2): 5%
T/C (final tumor weights) ([1]; 30 mg/kg q.d. oral, P = 0.0241): 45.8
tolerability ([1]; 30 mg/kg q.d. schedule): well tolerated with no significant body weight loss
% effect (FGR): -2%
% effect (ERBB4): -28%
% effect (EPHA3): 5%
